Legend:
[1] = tested on: Septoria nodorum; experiment: leaf disk assay, Septoria nodorum (wheat glume blotch), preventive; type: in vivo; conditions: for Efficacy (%): wheat leaf segments, four days after inoculation

| SMILES | Efficacy (%) ([1]; Concentration 60 ppm) | Efficacy (%) ([1]; Concentration 200 ppm) | fungicidal activity against Septoria nodorum compared with the compound from the state of the art ([1]; both application rates (200 and 60 ppm)) | melting point |
| --- | --- | --- | --- | --- |
| CC#CC(C)(C)NC(=O)C(Oc1cc(Br)c2ncc(Br)cc2c1)SC (stereo not drawn) [2 (Table 23), reference compound] | 0% | 0% |  |  |
| CC#CC(C)(C)NC(=O)C(Oc1cc(Br)c2ncc(I)cc2c1)SC (stereo not drawn) [2(5), 2-(8-bromo-3-iodo-quinolinyl-6-oxy)-2-methylthio-N-(2-methylpent-3-yn-2-yl) acetamide] | 80% | 100% | substantially better fungicidal activity | 161 to 162 °C |
